Literature values in patent US6479458B1, “Targeting the reverse mode of the Na+/Ca2+ exchanger for the treatment of optic neuropathy associated with glaucoma and ischemic optic neuropathy” (Allergan, Inc., priority 2001, dated 2002).

Tests used:
[1] = tested on: Na+/Ca2+ exchanger; settings: variety of cell types including neurons
[2] = tested on: sodium-calcium exchange

Molecule: CS(=O)(=O)O.N=C(N)SCCc1ccc(OCc2ccc([N+](=O)[O-])cc2)cc1 [KB-R743]
- block of the reverse mode of the Na+/Ca2+ exchanger [1]: preferentially block the reverse mode

Molecule: cyclosporin A
- inhibition of sodium-calcium exchange [2]: specific activity in the inhibition of sodium-calcium exchange
